Measurements published in ChEMBL document CHEMBL1667741, “Rational design, synthesis, and characterization of highly fluorescent optical switches for high-contrast optical lock-in detection (OLID) imaging microscopy in living cells” (Bioorg Med Chem, 2011).

Experiments:
Format in all cases: ADME, cell-based
Conditions in all cases: nih3t3; call rule not given here
[1] = Drug uptake in mouse NIH/3T3 cells assessed as fluorescent optical switching measured after continuous irradiation at 546 and 365 nm light by optical lock-in detection imaging microscopy
[2] = Drug uptake in mouse NIH/3T3 cells assessed as fluorescent optical switching measured after every 2 s with 100 ms pulse of 365 nm irradiation by optical lock-in detection imaging microscopy
[3] = Drug uptake in mouse NIH/3T3 cells assessed as fluorescent optical switching measured after continuous irradiation at 546 nm light by optical lock-in detection imaging microscopy; design: dose or concentration left out as unconfirmed

SMILES	Drug uptake [1]	Drug uptake [2]	Drug uptake [3]
CN(C)c1ccc2c(-c3ccc(C(=O)NCc4cccc5c4C(C)(C)C4(C=Nc6c(ccc7ccccc67)O4)N5C)cc3C(=O)[O-])c3ccc(=[N+](C)C)cc-3oc2c1 (centres undefined)	Active	Active	
COc1ccc2ccc3c(c2c1)N=CC1(O3)N(C)c2cccc(CNC(=O)c3ccc(-c4c5ccc(=[N+](C)C)cc-5oc5cc(N(C)C)ccc45)c(C(=O)[O-])c3)c2C1(C)C (centres undefined)	Active		Active
CN(C)c1ccc2c(-c3ccc(C(=O)NCc4cccc5c4C(C)(C)C4(C=Nc6c(ccc7ccc(O)cc67)O4)N5C)cc3C(=O)[O-])c3ccc(=[N+](C)C)cc-3oc2c1 (centres undefined)	Active		
CN(C)c1ccc2c(-c3ccc(C(=O)NCCc4ccc5c(c4)C(C)(C)C4(C=Nc6c(ccc7ccccc67)O4)N5C)cc3C(=O)[O-])c3ccc(=[N+](C)C)cc-3oc2c1 (centres undefined)	Active		
CN(C)c1ccc2c(-c3ccc(C(=O)NC(CCCCNC(=O)CCCc4ccc5c(c4)C(C)(C)C4(C=Nc6c(ccc7ccccc67)O4)N5C)C(=O)O)cc3C(=O)[O-])c3ccc(=[N+](C)C)cc-3oc2c1 (centres undefined)	Active		
CN(C)c1ccc2c(-c3ccc(C(=O)NCCCOc4ccc5ccc6c(c5c4)N=CC4(O6)N(C)c5ccc(CCCC(=O)ON6C(=O)CCC6=O)cc5C4(C)C)cc3C(=O)[O-])c3ccc(=[N+](C)C)cc-3oc2c1 (centres undefined)	Active		
CN(C)c1ccc2c(-c3ccc(C(=O)NCCCOc4ccc5ccc6c(c5c4)N=CC4(O6)N(CCCCCC(=O)ON5C(=O)CCC5=O)c5ccccc5C4(C)C)cc3C(=O)[O-])c3ccc(=[N+](C)C)cc-3oc2c1 (centres undefined)	Active		
